The values that follow come from article PMC7835349 (Communications Biology, 2021).

This assay relates to tumours. The experiment in a line: Formulation dependent efficacy of AZD4320 (Fig S2a). The class given is in vivo. Conditions: single 5mg/kg IV bolus. The method, then: Supplementary Figure 2. Formulation dependent efficacy of AZD4320 (a) A single 5mg/kg
IV bolus dose of AZD4320 formulated in 30% hydroxypropyl-β-cyclodextrin (HP-β-CD)
Data in the graphs are represented as mean tumor volume
± SEM (n=5). […]
(1 picture or pasted object on this page, not shown here)

On to `CN(CCO)CCC(CSc1ccccc1)Nc1ccc(S(=O)(=O)NC(=O)c2ccc(N3CCC(C(O)c4ccccc4-c4ccc(Cl)cc4)CC3)cc2)cc1S(=O)(=O)C(F)(F)F` (centres unmarked) [AZD4320], for which the “efficacy” value runs as follows: (formulated in 0.5% Tween 80) “no efficacy”; (formulated in 30% hydroxypropyl-β-cyclodextrin) “complete regression of the tumours”.
